Laboratory results as given in patent US20190391160A1 (INSTITUT PASTEUR, published 2019).
“Also recorded” adds a separate entry of the source.

Assays:
[1] = target: CFTR (WT-CFTR) Cl− channel (Homo sapiens, UniProt P13569); format: cell-based
[2] = test system: cAMP-dependent Cl− short-circuit current of mouse colon tissue; conditions: 100 μM bumetanide, basolateral side
Procedure: Mice were 32 to 38 weeks old and weighed 23 to 36 g. Pups were weaned at 21 days and fed solid mouse chow (Teklad 2018S, Harland). All mice were allowed food and water ad libitum until the time of sacrifice by cervical dislocation. Colons were dissected, cut in 4 pieces from rectum to lower intestine. The fragments from colon were introduced immediately into Ussing chambers for subsequent short-circuit experiments.
Transepithelial transport measurements were performed as described previously^33 in the short-circuit mode (6 mice and 17 tissus). […] The excised colon were stripped of external muscle layers and mounted in Ussing chambers (0.018 cm^2 aperture). Hemichambers were connected to a DVC-1000 voltage clamp (World Precision Instruments, Inc., Sarasota, Fla.) via Ag/AgCl electrodes and 3 M KCl agar bridges for recording of short-circuit current. Currents were stored on a computer using analog-to-digital converter (PowerLab) and LabChart software 5.0. Prior to the experiment, prostaglandin generation was blocked with 10 μM indomethacin on the apical and basolateral sides (incubation of tissue for 30 min before the beginning of the experiment). Transepithelial Isc was calculated as μEq cm^−2 tissue surface area. The apical and basolateral solutions contained (in mM): 116 NaCl, 25 NaHCO3, 1.2 CaCl2, 1.2 MgCl2, 2,4 […], 0,4 KH2PO4, 10 glucose and was gassed with 95% O2-5% CO2 (pH 7.4).

[3] = target: CFTR channels (WT-CFTR) (Homo sapiens, UniProt P13569); format: cell-based; conditions: 100 μM glibenclamide and 10 μM inh172
Text: HeLa cells stably transfected with WT-CFTR were kindly provided by Pascale Fanen (INSERM U955, Créteil, France). The intracellular side of the membrane patch was exposed to a solution containing (in mM): 150 N-methyl-D-gluconate chloride (NMDG-Cl), 0.5 MgCl2, 2 EGTA, 10 HEPES, 10 glucose, pH 7.4, adjusted to pH 7.4 with NMDG. The patch pipettes were filled with (in mM): 150 NMDG-Cl, 0.5 MgCl2, 2 EGTA, 10 HEPES, 10 glucose, 1 ATP-Mg adjusted to pH 7.4 with NMDG. CFTR channels were activated by addition of 40 nM PKA+1 mM ATP-Mg at the intracellular side of the patches. The presence of CFTR channels was verified by addition of 100 μM glibenclamide and 10 μM inh172. The effect of CB was tested by perfusion of 1 nM of CB in the intracellular solution in the presence of 40 nM PKA+0.05, 0.5, or 1 mM ATP-Mg. The currents were recorded as previously described^34. […] Currents were recorded with Bio-logic RK 400 patch-clamp amplifiers (Bio-Logic, Claix, France), monitored using PClamp9 software (Axon Instruments, Foster City, Calif., USA) and stored on a computer. […] We calculated channel activity (NPo) as <I>/i, where <I> is the time-averaged current passing through the channels on the patch with the closed current level as reference and i is the unit current amplitude.

[4] = target: ΔF508-CFTR (Homo sapiens, UniProt P13569, DEL508-508); format: cell-based; conditions: after corrector and CB; inh172 and glibenclamide as a mixture
[5] = test system: Cl— channel current
[6] = target: ΔF508-NBD1 of CFTR (Homo sapiens, UniProt P13569, DEL508-508); format: binding
[7] = target: recombinant, purified human NBD1 (nucleotide binding domain 1) of CFTR, wild type (human, UniProt P13569 389-678)
[8] = target: human ΔF508-NBD1 (NBD1 domain of CFTR with deletion of Phe508) (human, UniProt P13569 389-678)
Sequence of human ΔF508-NBD1 (NBD1 domain of CFTR with deletion of Phe508) (P13569 other isoform, or with tags, fused parts or gaps mutant limits assumed): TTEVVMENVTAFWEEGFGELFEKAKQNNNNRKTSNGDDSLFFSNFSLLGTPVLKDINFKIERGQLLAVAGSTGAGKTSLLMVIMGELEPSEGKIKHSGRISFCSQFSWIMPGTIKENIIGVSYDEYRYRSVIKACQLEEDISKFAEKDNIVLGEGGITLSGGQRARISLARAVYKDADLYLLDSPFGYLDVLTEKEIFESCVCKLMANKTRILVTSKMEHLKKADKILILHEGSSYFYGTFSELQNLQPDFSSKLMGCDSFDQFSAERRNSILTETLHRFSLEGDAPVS

Sequence of recombinant, purified human NBD1 (nucleotide binding domain 1) of CFTR, wild type (P13569 389-678 limits assumed): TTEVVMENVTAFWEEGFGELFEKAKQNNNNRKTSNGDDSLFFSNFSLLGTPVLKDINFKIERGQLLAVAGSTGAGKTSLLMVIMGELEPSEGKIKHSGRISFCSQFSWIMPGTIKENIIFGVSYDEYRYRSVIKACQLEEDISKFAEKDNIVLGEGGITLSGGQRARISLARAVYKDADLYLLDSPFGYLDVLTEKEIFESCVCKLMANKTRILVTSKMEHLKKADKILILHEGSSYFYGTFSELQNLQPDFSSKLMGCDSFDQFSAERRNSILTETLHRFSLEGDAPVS
Sequence of ΔF508-NBD1 of CFTR (P13569 with tags, fused parts or gaps DEL508-508 limits assumed): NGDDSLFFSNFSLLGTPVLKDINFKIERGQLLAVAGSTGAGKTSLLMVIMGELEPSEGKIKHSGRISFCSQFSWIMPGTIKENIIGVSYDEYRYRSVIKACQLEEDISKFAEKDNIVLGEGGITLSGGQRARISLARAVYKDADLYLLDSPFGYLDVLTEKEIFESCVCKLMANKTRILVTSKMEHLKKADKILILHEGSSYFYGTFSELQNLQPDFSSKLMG
Sequence of ΔF508-CFTR (P13569 with tags, fused parts or gaps DEL508-508): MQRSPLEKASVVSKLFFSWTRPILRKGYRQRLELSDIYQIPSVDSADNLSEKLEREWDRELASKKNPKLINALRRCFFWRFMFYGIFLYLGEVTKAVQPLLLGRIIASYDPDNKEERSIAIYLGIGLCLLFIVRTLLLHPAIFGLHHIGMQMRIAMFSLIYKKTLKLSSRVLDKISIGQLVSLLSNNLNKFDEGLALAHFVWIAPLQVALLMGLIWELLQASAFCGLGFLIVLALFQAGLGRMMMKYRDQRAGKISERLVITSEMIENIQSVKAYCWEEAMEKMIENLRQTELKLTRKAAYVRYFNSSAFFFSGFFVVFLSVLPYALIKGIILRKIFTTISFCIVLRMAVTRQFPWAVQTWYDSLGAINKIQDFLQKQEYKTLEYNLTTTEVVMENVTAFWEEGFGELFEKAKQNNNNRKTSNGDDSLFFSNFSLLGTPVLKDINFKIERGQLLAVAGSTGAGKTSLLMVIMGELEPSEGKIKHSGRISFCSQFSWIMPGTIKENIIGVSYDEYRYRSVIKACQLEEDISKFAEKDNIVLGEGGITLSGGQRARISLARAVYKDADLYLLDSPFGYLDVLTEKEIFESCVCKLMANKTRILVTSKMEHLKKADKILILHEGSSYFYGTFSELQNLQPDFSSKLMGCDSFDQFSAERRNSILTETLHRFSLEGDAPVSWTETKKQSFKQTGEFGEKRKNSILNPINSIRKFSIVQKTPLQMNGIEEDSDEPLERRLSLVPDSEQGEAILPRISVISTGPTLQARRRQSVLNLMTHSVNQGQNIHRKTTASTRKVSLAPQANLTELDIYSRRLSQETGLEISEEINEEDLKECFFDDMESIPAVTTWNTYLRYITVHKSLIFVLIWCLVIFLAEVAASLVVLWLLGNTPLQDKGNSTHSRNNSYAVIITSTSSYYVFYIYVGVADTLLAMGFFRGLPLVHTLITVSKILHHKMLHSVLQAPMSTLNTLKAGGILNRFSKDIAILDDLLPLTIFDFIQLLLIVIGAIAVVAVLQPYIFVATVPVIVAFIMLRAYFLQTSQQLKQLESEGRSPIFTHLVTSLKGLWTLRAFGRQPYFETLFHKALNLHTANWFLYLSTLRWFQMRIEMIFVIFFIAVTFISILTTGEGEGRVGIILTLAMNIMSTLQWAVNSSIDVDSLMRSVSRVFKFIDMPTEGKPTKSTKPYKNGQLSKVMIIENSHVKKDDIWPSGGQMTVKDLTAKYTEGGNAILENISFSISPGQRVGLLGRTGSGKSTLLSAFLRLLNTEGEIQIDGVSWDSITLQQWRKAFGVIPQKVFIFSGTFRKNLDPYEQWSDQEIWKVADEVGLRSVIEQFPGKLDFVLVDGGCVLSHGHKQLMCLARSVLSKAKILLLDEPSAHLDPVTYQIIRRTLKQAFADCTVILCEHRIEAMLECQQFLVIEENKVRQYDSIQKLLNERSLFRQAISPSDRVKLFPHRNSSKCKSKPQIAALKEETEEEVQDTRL
Sequence of CFTR (WT-CFTR) Cl− channel (P13569 whole entry): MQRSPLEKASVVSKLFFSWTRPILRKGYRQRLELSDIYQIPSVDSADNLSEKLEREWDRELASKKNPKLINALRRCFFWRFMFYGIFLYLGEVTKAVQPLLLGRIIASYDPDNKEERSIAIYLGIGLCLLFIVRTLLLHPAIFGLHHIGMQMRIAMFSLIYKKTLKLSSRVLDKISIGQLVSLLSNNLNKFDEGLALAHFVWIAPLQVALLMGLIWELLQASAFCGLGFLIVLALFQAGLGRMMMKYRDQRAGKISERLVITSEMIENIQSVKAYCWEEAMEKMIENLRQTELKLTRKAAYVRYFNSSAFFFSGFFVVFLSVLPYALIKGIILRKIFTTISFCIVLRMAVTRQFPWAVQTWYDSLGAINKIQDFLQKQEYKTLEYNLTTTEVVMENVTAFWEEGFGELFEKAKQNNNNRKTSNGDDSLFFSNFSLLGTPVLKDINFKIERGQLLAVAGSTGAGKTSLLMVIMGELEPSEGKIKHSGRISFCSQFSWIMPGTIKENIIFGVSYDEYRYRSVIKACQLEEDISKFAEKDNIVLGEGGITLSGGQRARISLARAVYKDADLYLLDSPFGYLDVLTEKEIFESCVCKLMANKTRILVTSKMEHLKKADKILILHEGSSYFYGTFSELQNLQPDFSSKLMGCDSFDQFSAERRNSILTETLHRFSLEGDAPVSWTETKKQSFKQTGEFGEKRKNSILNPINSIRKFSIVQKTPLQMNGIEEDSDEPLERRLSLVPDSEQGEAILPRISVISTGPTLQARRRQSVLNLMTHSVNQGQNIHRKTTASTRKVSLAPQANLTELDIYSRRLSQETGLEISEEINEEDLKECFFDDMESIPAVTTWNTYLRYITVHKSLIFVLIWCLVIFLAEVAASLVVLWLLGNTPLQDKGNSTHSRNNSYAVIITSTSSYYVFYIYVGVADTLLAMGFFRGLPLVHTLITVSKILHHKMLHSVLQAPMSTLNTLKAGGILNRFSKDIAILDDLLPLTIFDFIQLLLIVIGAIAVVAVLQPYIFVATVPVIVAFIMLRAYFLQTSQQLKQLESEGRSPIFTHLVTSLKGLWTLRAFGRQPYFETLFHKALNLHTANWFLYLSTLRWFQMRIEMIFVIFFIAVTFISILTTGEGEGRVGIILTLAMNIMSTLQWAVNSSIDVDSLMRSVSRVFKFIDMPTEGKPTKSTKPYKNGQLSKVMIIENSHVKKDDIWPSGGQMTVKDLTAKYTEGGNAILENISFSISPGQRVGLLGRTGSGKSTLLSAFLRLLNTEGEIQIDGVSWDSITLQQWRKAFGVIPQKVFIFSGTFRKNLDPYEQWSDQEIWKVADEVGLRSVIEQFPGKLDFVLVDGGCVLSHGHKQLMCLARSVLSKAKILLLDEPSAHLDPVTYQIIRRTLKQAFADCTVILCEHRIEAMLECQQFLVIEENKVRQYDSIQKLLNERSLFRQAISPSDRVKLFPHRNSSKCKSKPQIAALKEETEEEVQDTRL
Sequence of CFTR channels (WT-CFTR) (P13569 whole entry, the tested form may be a part): as the sequence (P13569 whole entry) above

Molecule: CCCCC/C=C\C/C=C\C/C=C\C/C=C\CCCC(=O)O [arachidonic acid]
- effect on IcAMP (CFTR-Cl− current) [1]: no effect on IcAMP

Molecule: CCCCNc1cc(C(=O)O)cc(S(N)(=O)=O)c1Oc1ccccc1 [bumetanide]
- inhibition of the CB-induced Isc increase [2]: inhibited

Molecule: COc1ccc(Cl)cc1C(=O)NCCc1ccc(S(=O)(=O)NC(=O)NC2CCCCC2)cc1 [glibenclamide]
- inhibition of the activated channels [3]: inhibited
- inhibition of the CB-potentiated current [4]: only slightly

Molecule: NAVPFYAFYGCYCGWGGQ
- Cl− channel current [5]: increased; also recorded: increases Cl— channel current
- binding of peptide to mutated NBD1 [6]: has shown interaction; also recorded: interacts with ΔF508-NBD1

Molecule: glyH101
- inhibition of the CB-potentiated current [4]: inhibited

B1: recombinant human non-pancreatic secreted phospholipase A2 group IIA (enzyme, UniProt P14555 21-144, looked up)
chain: NLVNFHRMIKLTTGKEAALSYGFYGCHCGVGGRGSPKDATDRCCVTHDCCYKRLEKRGCGTKFLSYKFSNSGSRITCAKQDSCRSQLCECDKAAATCFARNKTTYNKKYQYYSNKHCRGSTPRC
- Kd [7]: 35 nM
- koff [7]: 0.0021 s⁻¹
- kon [7]: 59000 M⁻¹ s⁻¹
- Kd [8]: 37 nM
- koff [8]: 0.0066 s⁻¹
- kon [8]: 180000 M⁻¹ s⁻¹
